Reference: PubChem BioAssay (NCI)
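Dose response: 5 concentrations. Exposure: 48 h. Format: 96-well plates. Endpoint: linear interpolation; highest concentration if not reached. GI50 is the concentration that inhibits growth by half. Definition used: TGI = concentration required for complete inhibition of growth.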

How the values were obtained:
Assay in all cases: inhibition of tumour cell growth, NCI panel, 48 h
NCI-H23 lung = test system: NCI-H23 lung
NCI-H460 lung = test system: NCI-H460 lung
NCI-H522 lung = test system: NCI-H522 lung
NCI/ADR-RES ovarian = test system: NCI/ADR-RES ovarian
OVCAR-3 ovarian = test system: OVCAR-3 ovarian
OVCAR-4 ovarian = test system: OVCAR-4 ovarian
OVCAR-5 ovarian = test system: OVCAR-5 ovarian
OVCAR-8 ovarian = test system: OVCAR-8 ovarian
PC-3 prostate = test system: PC-3 prostate
RPMI-8226 leukemia = test system: RPMI-8226 leukemia
RXF 393 renal = test system: RXF 393 renal
SF-268 CNS = test system: SF-268 CNS
SF-295 CNS = test system: SF-295 CNS
SF-539 CNS = test system: SF-539 CNS
SK-MEL-2 melanoma = test system: SK-MEL-2 melanoma
SK-MEL-28 melanoma = test system: SK-MEL-28 melanoma
SK-MEL-5 melanoma = test system: SK-MEL-5 melanoma
SK-OV-3 ovarian = test system: SK-OV-3 ovarian
SN12C renal = test system: SN12C renal
SNB-19 CNS = test system: SNB-19 CNS
SNB-75 CNS = test system: SNB-75 CNS
SR leukemia = test system: SR leukemia
SW-620 colon = test system: SW-620 colon
T-47D breast = test system: T-47D breast
TK-10 renal = test system: TK-10 renal
U251 CNS = test system: U251 CNS
UACC-257 melanoma = test system: UACC-257 melanoma
UACC-62 melanoma = test system: UACC-62 melanoma
UO-31 renal = test system: UO-31 renal

`Oc1c(Cl)cc(Cl)c2cccnc12` gave a GI50 (NCI-H23 lung) of 4.2 µM, a TGI (NCI-H23 lung) of 42.5 µM and a GI50 (NCI-H460 lung) of 1.87 µM. For the same molecule, the TGI (NCI-H460 lung) was 6.9 µM, the GI50 (NCI-H522 lung) was 1.83 µM and the TGI (NCI-H522 lung) was 4.85 µM. The GI50 (NCI/ADR-RES ovarian) was 3.3 µM, the TGI (NCI/ADR-RES ovarian) was greater than 100 µM and the GI50 (OVCAR-3 ovarian) was 3.17 µM. It also gave a TGI (OVCAR-3 ovarian) of 11.6 µM, a GI50 (OVCAR-4 ovarian) of 2.32 µM and a TGI (OVCAR-4 ovarian) of 7.85 µM. It also gave a GI50 (OVCAR-5 ovarian) of 8.71 µM, a TGI (OVCAR-5 ovarian) of 43.3 µM and a GI50 (OVCAR-8 ovarian) of 2.75 µM. It also gave a TGI (OVCAR-8 ovarian) of 54.6 µM, a GI50 (PC-3 prostate) of 3.94 µM and a TGI (PC-3 prostate) greater than 100 µM. For the same molecule, the GI50 (RPMI-8226 leukemia) was 4.34 µM, the TGI (RPMI-8226 leukemia) was greater than 100 µM and the GI50 (RXF 393 renal) was 2.25 µM. It also gave a TGI (RXF 393 renal) of 7.91 µM, a GI50 (SF-268 CNS) of 3.39 µM and a TGI (SF-268 CNS) greater than 100 µM. It also gave a GI50 (SF-295 CNS) of 1.96 µM, a TGI (SF-295 CNS) greater than 100 µM and a GI50 (SF-539 CNS) of 4.08 µM. It also gave a TGI (SF-539 CNS) of 71.1 µM, a GI50 (SK-MEL-2 melanoma) of 3.83 µM and a TGI (SK-MEL-2 melanoma) of 11.5 µM. The GI50 (SK-MEL-28 melanoma) was 3.96 µM, the TGI (SK-MEL-28 melanoma) was 29.4 µM and the GI50 (SK-MEL-5 melanoma) was 1.76 µM. For the same molecule, the TGI (SK-MEL-5 melanoma) was 3.59 µM, the GI50 (SK-OV-3 ovarian) was 3.71 µM and the TGI (SK-OV-3 ovarian) was 16.2 µM. The GI50 (SN12C renal) was 3.39 µM, the TGI (SN12C renal) was 51.8 µM and the GI50 (SNB-19 CNS) was 3.73 µM. For the same molecule, the TGI (SNB-19 CNS) was 24.6 µM, the GI50 (SNB-75 CNS) was 6.27 µM and the TGI (SNB-75 CNS) was greater than 100 µM. The GI50 (SR leukemia) was 2.68 µM, the TGI (SR leukemia) was 9.48 µM and the GI50 (SW-620 colon) was 4.47 µM. The TGI (SW-620 colon) was 18.4 µM, the GI50 (T-47D breast) was 2.35 µM and the TGI (T-47D breast) was 12 µM. The GI50 (TK-10 renal) was 5.56 µM, the TGI (TK-10 renal) was 30.8 µM and the GI50 (U251 CNS) was 2.67 µM. The TGI (U251 CNS) was 55 µM, the GI50 (UACC-257 melanoma) was 2.26 µM and the TGI (UACC-257 melanoma) was 7.24 µM. For the same molecule, the GI50 (UACC-62 melanoma) was 1.79 µM, the TGI (UACC-62 melanoma) was 5.04 µM and the GI50 (UO-31 renal) was 2.5 µM. It also gave a TGI (UO-31 renal) of 9.31 µM.
